Tests used:
[1] = target: T1, Glucocorticoid receptor of the rat thymus (Rattus norvegicus, UniProt P06536); experiment: Glucocorticoid receptor of the rat thymus, relative bonding affinity (RBA); type: binding, rat (Sprague-Dawley); conditions: for Relative bonding affinity (RBA), Glucocorticoid, 4 H: incubation 4 H at 0° C.; for Relative bonding affinity (RBA), Glucocorticoid, 4 H / Relative bonding affinity (RBA), Glucocorticoid, 24 H: versus cold dexamethasone, tritiated dexamethasone; for Relative bonding affinity (RBA), Glucocorticoid, 24 H: incubation 24 H at 0° C.
T1 construct: the thymus is removed and homogenized at 0° C. in a buffer; from tissue; host or cells: thymus of adrenalectomized male Sprague-Dawley rats, 105,000 g supernatant (cytosol)
T1 sequence (P06536 1-795): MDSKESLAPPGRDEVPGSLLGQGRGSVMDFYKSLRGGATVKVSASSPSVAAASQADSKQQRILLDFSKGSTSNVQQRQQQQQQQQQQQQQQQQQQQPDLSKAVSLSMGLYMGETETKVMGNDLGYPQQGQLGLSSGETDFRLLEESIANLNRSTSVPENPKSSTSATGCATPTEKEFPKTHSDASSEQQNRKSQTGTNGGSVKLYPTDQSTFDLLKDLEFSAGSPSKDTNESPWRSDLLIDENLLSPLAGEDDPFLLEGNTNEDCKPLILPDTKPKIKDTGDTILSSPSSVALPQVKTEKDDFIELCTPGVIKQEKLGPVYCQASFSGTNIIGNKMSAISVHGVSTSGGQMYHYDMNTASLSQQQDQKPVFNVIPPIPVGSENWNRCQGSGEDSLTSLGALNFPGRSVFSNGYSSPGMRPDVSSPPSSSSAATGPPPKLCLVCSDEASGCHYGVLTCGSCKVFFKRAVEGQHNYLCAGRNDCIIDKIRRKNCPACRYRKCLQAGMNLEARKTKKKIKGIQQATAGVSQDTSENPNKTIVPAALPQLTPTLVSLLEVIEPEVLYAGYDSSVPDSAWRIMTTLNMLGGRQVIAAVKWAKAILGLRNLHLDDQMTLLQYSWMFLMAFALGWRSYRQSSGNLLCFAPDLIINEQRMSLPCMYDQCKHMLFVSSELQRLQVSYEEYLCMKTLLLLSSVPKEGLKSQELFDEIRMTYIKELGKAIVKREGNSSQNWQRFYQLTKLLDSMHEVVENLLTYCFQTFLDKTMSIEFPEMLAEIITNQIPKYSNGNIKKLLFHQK
Method: Glucocorticoid receptor of the rat thymus
Male Sprague-Dawley EOPS rats, weighing 160 to 200 g are suprerenalectomized. 4 to 8 days after this ablation, the animals are killed, and the thymus is removed and homogenized at 0° C. in a buffer, Tris 10 mM, saccharose 0.25M, dithiothreitol 2 mM, HCl pH 7.4, using a Potter polytetrafluoroethylene-glass (1 g of tissue for 10 ml of TS). The homogenate is then ultra-centrifuged (105,000 g×90 min.) at 0° C. Aliquots of the supernatant so obtained are incubated at 0° C. for a time (t) with a constant concentration (T) of tritiated dexamethasone in the presence of increasing concentrations (0-2,500.10^-9 M) either of cold dexamethasone, or of the cold product under test. The concentration of bonded tritiated dexamethasone (B) is then measured in each incubate by the technique of adsorption on carbon dextran.
(§1) Calculation of the relative bonding affinity
(§2) The calculation of the relative bonding affinity (RBA) is the same for all the receptors.
(§3) The two following curves are drawn: the percentage of bonded tritiated hormone B/T as a function of the concentration of the cold reference hormone, and B/T as a function of the logarithm of the concentration of the cold product under test. The straight line of the equation [formula] is determined. B/T max=percentage of tritiated hormone bonded for an incubation of this tritiated hormone at the concentration (T). B/T min=percentage of tritiated hormone bonded for an incubation of this tritiated hormone at the concentration (T) in the presence of a great excess of cold hormone (2,500.10^-9 M).
(§4) The intersections of the straight line I50 with the curves enables the concentrations of the cold reference hormone (CH) and of the cold product under test (CX) to be evaluated which inhibit by 50% the bonding of the tritiated hormone on the receptor.
(§5) The relative bonding affinity (RBA) of the product under test is determined by the equation: [formula]

[2] = system: thymocytes of suprarenalectomized rats; experiment: Antiglucocorticoid activity: inhibition of the effect of dexamethasone on tritiated uridine incorporation in thymocytes; type: cell-based; conditions: Rattus norvegicus, Thymocyte, 5.10^-8 M dexamethasone, 37° C., 30 hours; for inhibition at 1 µM: product at 10^-6 M; for inhibition at 0.1 µM: product at 10^-7 M; for inhibition at 0.01 µM: product at 10^-8 M
Method: II. Antiglucocorticoid activity
The technique used derives from the method described by Dausse et Col. in "Molecular Pharmacology", 13, 948-953, (1977) ("the relationship between glucocorticoid structure and effects upon Thymocytes") for the thymocytes of mice.
The thymocytes of suprarenalectomized rats are incubated at 37° C. for 30 hours in a nutritive medium containing 5.10^-8 M of dexamethasone in the presence or not of a product being studied, at different concentrations. Tritiated uridine is added, and the incubation is continued for one hour. The incubates are cooled, and treated with a 5% solution of trichloroacetic acid, then filtered on Whatman GF/A paper, and washed three times with a 5% trichloroacetic acid solution. The radio-activity retained by the filter is determined.
The products of examples 1 to 4 oppose this effect.

[3] = target: T2, Progestogene receptor of rabbit uterus (Oryctolagus cuniculus, UniProt P06186); experiment: Progestogene receptor of rabbit uterus, relative bonding affinity (RBA); type: binding; conditions: for Relative bonding affinity (RBA), Progestogen, 2 H: incubation 2 H at 0° C.; for Relative bonding affinity (RBA), Progestogen, 2 H / Relative bonding affinity (RBA), Progestogen, 24 H: versus cold reference hormone, tritiated R; for Relative bonding affinity (RBA), Progestogen, 24 H: incubation 24 H at 0° C.
T2 construct: the uterus is removed, weighed and homogenized at 0° C; from tissue; host or cells: uterus of estradiol-treated impuberal rabbits, 105,000 g supernatant (cytosol)
T2 sequence (P06186 1-930): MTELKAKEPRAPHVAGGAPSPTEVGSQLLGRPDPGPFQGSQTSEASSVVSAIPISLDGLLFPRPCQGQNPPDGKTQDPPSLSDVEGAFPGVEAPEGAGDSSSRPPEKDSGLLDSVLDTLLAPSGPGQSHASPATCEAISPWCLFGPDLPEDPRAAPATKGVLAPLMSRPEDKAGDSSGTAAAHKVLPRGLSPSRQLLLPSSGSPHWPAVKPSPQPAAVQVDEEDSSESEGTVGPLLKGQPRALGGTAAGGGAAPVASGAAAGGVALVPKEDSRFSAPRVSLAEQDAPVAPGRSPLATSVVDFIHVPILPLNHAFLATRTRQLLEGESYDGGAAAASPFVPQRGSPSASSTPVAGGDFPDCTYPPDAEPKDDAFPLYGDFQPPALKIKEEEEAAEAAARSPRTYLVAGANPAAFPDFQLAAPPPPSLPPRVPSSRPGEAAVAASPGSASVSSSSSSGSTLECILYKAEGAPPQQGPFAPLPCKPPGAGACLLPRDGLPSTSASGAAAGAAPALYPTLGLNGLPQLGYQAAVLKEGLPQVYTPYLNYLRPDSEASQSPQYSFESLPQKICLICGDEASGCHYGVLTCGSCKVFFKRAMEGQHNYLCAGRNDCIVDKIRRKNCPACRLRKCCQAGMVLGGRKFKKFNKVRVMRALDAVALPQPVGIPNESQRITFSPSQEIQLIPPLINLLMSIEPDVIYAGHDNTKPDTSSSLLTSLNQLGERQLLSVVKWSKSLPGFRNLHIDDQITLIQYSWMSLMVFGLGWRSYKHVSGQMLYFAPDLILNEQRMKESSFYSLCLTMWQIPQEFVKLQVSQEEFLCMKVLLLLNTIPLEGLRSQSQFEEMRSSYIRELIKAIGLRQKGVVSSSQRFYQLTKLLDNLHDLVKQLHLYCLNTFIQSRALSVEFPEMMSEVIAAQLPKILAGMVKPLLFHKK
Method: Progestogene receptor of rabbit uterus
Impuberal rabbits weighing about 1 kg receive a cutaneous application of […] of estradiol. 5 days after this treatment, the animals are killed, the uterus is removed, weighed and homogenized at 0° C., using a Potter teflon-glass, in a buffered solution TS (tirs 10 mM, saccharose 0.25 M, HCl pH 7.4) (1 g of tissue for 50 ml of TS). The homogenate is then ultra-centrifuged (105,000 g×90 min.) at 0° C.
Aliquots of the supernatant so obtained are incubated at 0° C. for a time t, with a constant concentration (T) of tritiated product R (17,21-dimethyl-19-nor-4,9-pregnadiene-3,20-dione) in the presence of increasing concentrations (0-2500.10^-9 M either of R cold, or of cold progesterone, or of the cold product under test. The concentration (B) of bonded triated (R) is then measured in each incubate by the technique of adsorption on carbon dextran.
as §1, §2, §3, §4, §5

[4] = system: thymocytes of suprarenalectomized rats; conditions: general statement on glucocorticoids, in particular dexamethasone; cited from earlier work

SMILES	Relative bonding affinity (RBA), Glucocorticoid, 4 H [1]	Relative bonding affinity (RBA), Glucocorticoid, 24 H [1]	Relative bonding affinity (RBA), Progestogen, 2 H [3]	Relative bonding affinity (RBA), Progestogen, 24 H [3]	affinity for the glucocorticoid receptor (in words) ([1]; conclusion from RBA)	affinity for the progestogen receptor (in words) ([3]; conclusion from RBA)	inhibition at 1 µM [2] [%]	inhibition at 0.1 µM [2] [%]	inhibition at 0.01 µM [2] [%]	incorporation of tritiated uridine (in words) [4]
CSc1ccc(C2CC3(C)C(CCC34C=CCO4)C3CCC4=CC(=O)CCC4=C23)cc1 [Example 3, (17R) 11-beta-[4-(methylthio)phenyl]-spiro(estra-4,9-dien-17,2'-(5H)-furan)-3-one]	56	41	35	242	–	–	84	12	0	–
CSc1ccc(C2CC3(C)C(CCC34CCCO4)C3CCC4=CC(=O)CCC4=C23)cc1 [Example 4, (17R) 4',5'-dihydro-11-beta-[4-(methylthio)phenyl]-spiro(estra-4,9-dien-17,2'-(3H)-furan)-3-one]	69	39	78	388	very marked affinity	very marked affinity	80	21	0	–
C[C@@H]1C[C@H]2[C@@H]3CCC4=CC(=O)C=C[C@]4(C)[C@@]3(F)[C@@H](O)C[C@]2(C)[C@@]1(O)C(=O)CO [dexamethasone]	–	–	–	–	–	–	–	–	–	reduction in the incorporation of tritiated uridine

The next lines start with results.

Relative bonding affinity (RBA), Glucocorticoid, 4 H [1]	Relative bonding affinity (RBA), Glucocorticoid, 24 H [1]	Relative bonding affinity (RBA), Progestogen, 2 H [3]	Relative bonding affinity (RBA), Progestogen, 24 H [3]	affinity for the glucocorticoid receptor (in words) ([1]; conclusion from RBA)	affinity for the progestogen receptor (in words) ([3]; conclusion from RBA)	SMILES	inhibition at 1 µM [2] [%]	inhibition at 0.1 µM [2] [%]	inhibition at 0.01 µM [2] [%]	incorporation of tritiated uridine (in words) [4]
118	48	62	307	–	–	CN(C)c1ccc(C2CC3(C)C(CCC34CCCO4)C3CCC4=CC(=O)CCC4=C23)cc1 (stereo not shown) [Example 1]	125	51	11	–
142	96	23	222	–	–	CN(C)c1ccc(C2CC3(C)C(CCC34C=CCO4)C3CCC4=CC(=O)CCC4=C23)cc1 (stereo not drawn) [Example 2, (17 R) 11-beta-[4-(dimethylamino)phenyl]-spiro (estra-4,9-dien-17,27-(5H)-furan)-3-one]	32	18	0	–
